molecular target: PI3K-alpha (Homo sapiens (Human), UniProt P42336); assay: HTRF PI3K biochemical assay, alpha isoform; details: ratio PI3K-alpha IC50 value/PI3K-delta IC50 value
Sequence (P42336 whole entry, looked up, canonical isoform): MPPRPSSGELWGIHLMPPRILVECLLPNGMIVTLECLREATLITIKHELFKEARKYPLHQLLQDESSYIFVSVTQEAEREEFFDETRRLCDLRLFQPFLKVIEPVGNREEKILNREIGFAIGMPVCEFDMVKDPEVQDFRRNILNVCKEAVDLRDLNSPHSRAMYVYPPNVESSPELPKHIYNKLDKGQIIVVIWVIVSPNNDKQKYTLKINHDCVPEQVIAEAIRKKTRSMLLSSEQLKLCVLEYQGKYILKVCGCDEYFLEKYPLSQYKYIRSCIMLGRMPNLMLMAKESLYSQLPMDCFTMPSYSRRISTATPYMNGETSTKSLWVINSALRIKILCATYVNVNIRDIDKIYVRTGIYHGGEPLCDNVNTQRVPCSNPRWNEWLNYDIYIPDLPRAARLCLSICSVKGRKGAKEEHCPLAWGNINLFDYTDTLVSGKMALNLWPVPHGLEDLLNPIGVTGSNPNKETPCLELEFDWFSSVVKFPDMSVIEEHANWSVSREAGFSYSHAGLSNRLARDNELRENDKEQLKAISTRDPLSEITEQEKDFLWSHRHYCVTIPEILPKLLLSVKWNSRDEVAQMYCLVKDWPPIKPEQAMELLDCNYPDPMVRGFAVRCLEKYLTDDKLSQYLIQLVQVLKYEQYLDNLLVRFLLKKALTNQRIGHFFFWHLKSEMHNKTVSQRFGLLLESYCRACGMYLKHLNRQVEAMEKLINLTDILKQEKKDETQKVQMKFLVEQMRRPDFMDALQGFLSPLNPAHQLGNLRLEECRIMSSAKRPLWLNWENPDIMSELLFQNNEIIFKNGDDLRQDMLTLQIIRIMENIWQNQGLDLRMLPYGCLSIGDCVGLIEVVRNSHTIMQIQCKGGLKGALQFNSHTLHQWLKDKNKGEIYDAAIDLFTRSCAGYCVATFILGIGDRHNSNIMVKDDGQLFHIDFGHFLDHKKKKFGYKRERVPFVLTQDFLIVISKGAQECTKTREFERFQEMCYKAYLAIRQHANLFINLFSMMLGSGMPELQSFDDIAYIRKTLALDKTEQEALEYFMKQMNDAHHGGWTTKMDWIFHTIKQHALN
Sequence (P27986 whole entry partner, looked up, canonical isoform): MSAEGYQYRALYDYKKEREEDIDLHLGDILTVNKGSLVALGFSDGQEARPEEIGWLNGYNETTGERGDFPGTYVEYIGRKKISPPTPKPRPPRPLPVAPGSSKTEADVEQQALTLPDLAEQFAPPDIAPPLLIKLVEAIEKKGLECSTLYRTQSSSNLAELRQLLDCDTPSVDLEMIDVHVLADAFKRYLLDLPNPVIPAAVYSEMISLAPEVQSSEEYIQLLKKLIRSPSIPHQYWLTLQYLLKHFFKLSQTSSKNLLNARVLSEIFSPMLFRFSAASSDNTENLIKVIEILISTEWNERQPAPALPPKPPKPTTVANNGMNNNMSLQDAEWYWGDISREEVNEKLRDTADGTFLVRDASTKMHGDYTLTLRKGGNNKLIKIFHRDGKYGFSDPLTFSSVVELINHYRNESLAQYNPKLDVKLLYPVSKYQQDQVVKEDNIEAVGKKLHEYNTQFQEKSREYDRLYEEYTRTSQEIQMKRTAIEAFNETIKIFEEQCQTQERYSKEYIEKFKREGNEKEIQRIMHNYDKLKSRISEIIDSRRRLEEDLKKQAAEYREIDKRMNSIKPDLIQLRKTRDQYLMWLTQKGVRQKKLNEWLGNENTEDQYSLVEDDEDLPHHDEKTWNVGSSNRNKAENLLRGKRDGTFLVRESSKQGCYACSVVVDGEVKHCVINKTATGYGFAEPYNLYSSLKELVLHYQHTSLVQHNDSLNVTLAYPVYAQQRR

SMILES | Relative Selectivity versus PI3Kalpha
CCn1ncc(-c2nc3c(O[C@H]4CCN(C(=O)c5oc(C)nc5C)C4)ncnc3n2C)c1C [Compound 2-58, 6-({(3S)-1-[(2,4-dimethyl-1,3-oxazol-5-yl)carbonyl]pyrrolidin-3-yl}oxy)-8-(1-ethyl-5-methyl-1H-pyrazol-4-yl)-9-methyl-9H-purine] | >10
CCn1ncc(-c2nc3c(O[C@H]4CCN(C(=O)c5cc(C)n(C)n5)C4)ncnc3n2C)c1C [Compound 2-59, 6-({(3S)-1-[(1,5-dimethyl-1H-pyrazol-3-yl)carbonyl]pyrrolidin-3-yl}oxy)-8-(1-ethyl-5-methyl-1H-pyrazol-4-yl)-9-methyl-9H-purine] | 2
CCn1ncc(-c2nc3c(O[C@H]4CCN(C(=O)c5cc(C(F)(F)F)nn5C)C4)ncnc3n2C)c1C [Compound 2-61, 8-(1-ethyl-5-methyl-1H-pyrazol-4-yl)-9-methyl-6-{[(3S)-1-{[1-methyl-3-(trifluoromethyl)-1H-pyrazol-5-yl]carbonyl}pyrrolidin-3-yl]oxy}-9H-purine] | >10
CCn1ncc(-c2nc3c(O[C@H]4CCN(C(=O)C5CC(=O)N(C)C5)C4)ncnc3n2C)c1C (stereo partly drawn) [Compound 2-62, 4-{[(3S)-3-{[8-(1-ethyl-5-methyl-1H-pyrazol-4-yl)-9-methyl-9H-purin-6-yl]oxy}pyrrolidin-1-yl]carbonyl}-1-methylpyrrolidin-2-one] | >10
CCn1ncc(C(=O)N2CC[C@H](Oc3ncnc4c3nc(-c3cnn(CC)c3C)n4C)C2)c1C [Compound 2-63, 8-(1-ethyl-5-methyl-1H-pyrazol-4-yl)-6-({(3S)-1-[(1-ethyl-5-mcthyl-1H-pyrazol-4-yl)carbonyl]pyrrolidin-3-yl}oxy)-9-methyl-9H-purine] | 10
CCn1ncc(-c2nc3c(O[C@H]4CCN(C(=O)c5ccncc5)C4)ncnc3n2C)c1C [Compound 2-64, 8-(1-ethyl-5-methyl-1H-pyrazol-4-yl)-9-methyl-6-{[(3S)-1-(pyridin-4-ylcarbonyl)pyrrolidin-3-yl]oxy}-9H-purine] | >10
CCn1ncc(-c2nc3c(O[C@H]4CCN(C(=O)c5cnoc5C)C4)ncnc3n2C)c1C [Compound 2-65, 8-(1-ethyl-5-methyl-1H-pyrazol-4-yl)-9-methyl-6-({(3S)-1-[(5-methylisoxazol-4-yl)carbonyl]pyrrolidin-3-yl}oxy)-9H-purine] | >10
CCn1ncc(-c2nc3c(O[C@H]4CCN(C(=O)c5ccccn5)C4)ncnc3n2C)c1C [Compound 2-66, 8-(1-ethyl-5-methyl-1H-pyrazol-4-yl)-9-methyl-6-{[(3S)-1-(pyridin-2-ylcarbonyl)pyirolidin-3-yl]oxy}-9H-purine] | >10
CCn1ncc(-c2nc3c(O[C@H]4CCN(C(=O)c5cccn5C)C4)ncnc3n2C)c1C [Compound 2-67, 8-(1-ethyl-5-methyl-1H-pyrazol-4-yl)-9-methyl-6-({(3S)-1-[(1-methyl-1H-pyrrol-2-yl)carbonyl]pyrrolidin-3-yl}oxy)-9H-purine] | >10
CCc1oncc1C(=O)N1CC[C@H](Oc2ncnc3c2nc(-c2cnn(CC)c2C)n3C)C1 [Compound 2-68, 6-({(3S)-1-[(5-ethylisoxazol-4-yl)carbonyl]pyrrolidin-3-yl}oxy)-8-(1-ethyl-5-methyl-1H-pyrazol-4-yl)-9-methyl-9H-purine] | >10
CCn1ncc(-c2nc3c(O[C@H]4CCN(C(=O)c5oncc5C)C4)ncnc3n2C)c1C [Compound 2-69, 8-(1-ethyl-5-methyl-1H-pyrazol-4-yl)-9-methyl-6-({(3S)-1-[(4-methylisoxazol-5-yl)carbonyl]pyrrolidin-3-yl}oxy)-9H-purine] | >10
CCn1ncc(-c2nc3c(O[C@H]4CCN(C(=O)c5ocnc5C)C4)ncnc3n2C)c1C [Compound 2-71, 8-(1-ethyl-5-methyl-1H-pyrazol-4-yl)-9-methyl-6-({(3S)-1-[(4-methyl-1,3-oxazol-5-yl)carbonyl]pyrrolidin-3-yl}oxy)-9H-purine] | >10
CCn1ncc(-c2nc3c(O[C@H]4CCN(C(=O)c5cn[nH]c5)C4)ncnc3n2C)c1C [Compound 2-72, 8-(1-ethyl-5-methyl-1H-pyrazol-4-yl)-9-methyl-6-{[(3S)-1-(1H-pyrazol-4-ylcarbonyl)pyrrolidin-3-yl]oxy}-9H-purine] | 9
CCn1ncc(-c2nc3c(O[C@H]4CCN(C(=O)c5cncn5C)C4)ncnc3n2C)c1C [Compound 2-73] | >10
CCn1ncc(-c2nc3c(O[C@H]4CCN(C(=O)c5cc(C)[nH]n5)C4)ncnc3n2C)c1C [Compound 2-75, 8-(1-ethyl-5-methyl-1H-pyrazol-4-yl)-9-methyl-6-({(3S)-1-[(5-methyl-1H-pyrazol-3-yl)carbonyl]pyrrolidin-3-yl}oxy)-9H-purine] | 5
CCn1ncc(-c2nc3c(O[C@H]4CCN(C(=O)C5CC(=O)N(C(C)C)C5)C4)ncnc3n2C)c1C (stereo partly drawn) [Compound 2-77, 4-{[(3S)-3-{[8-(1-ethyl-5-methyl-1H-pyrazol-4-yl)-9-methyl-9H-purin-6-yl]oxy}pyrrolidin-1-yl]carbonyl}-1-(1-methylethyl)pyrrolidin-2-one] | >10
CCn1ncc(-c2nc3c(O[C@H]4CCN(C(=O)c5cc(C)n(C)c5C)C4)ncnc3n2C)c1C [Compound 2-79, 8-(1-ethyl-5-methyl-1H-pyrazol-4-yl)-9-methyl-6-({(3S)-1-[(1,2,5-trimethyl-1H-pyrrol-3-yl)carbonyl]pyrrolidin-3-yl}oxy)-9H-purine] | >10
CCn1ncc(-c2nc3c(O[C@H]4CCN(C(=O)c5cnn(C)c5)C4)ncnc3n2C)c1C [Compound 2-80, 8-(1-ethyl-5-methyl-1H-pyrazol-4-yl)-9-methyl-6-({(3S)-1-[(1-methyl-1H-pyrazol-4-yl)carbonyl]pyrrolidin-3-yl}oxy)-9H-purine] | 6
CCn1ncc(-c2nc3c(O[C@H]4CCN(C(=O)c5nnc(C)o5)C4)ncnc3n2C)c1C [Compound 2-81, 8-(1-ethyl-5-methyl-1H-pyrazol-4-yl)-9-methyl-6-({(3S)-1-[(5-methyl-1,3,4-oxadiazol-2-yl)carbonyl]pyrrolidin-3-yl}oxy)-9H-purine] | 5
CCn1ncc(-c2nc3c(O[C@H]4CCN(C(=O)C5CCc6nnnn65)C4)ncnc3n2C)c1C (stereo partly drawn) [Compound 2-84, 6-{[(3S)-1-(6,7-dihydro-5H-pyrrolo[1,2-d]tetrazol-5-ylcarbonyl)pyrrolidin-3-yl]oxy}-8-(1-ethyl-5-methyl-1H-pyrazol-4-yl)-9-methyl-9H-purine (non-preferred name)] | >10
CCc1nc(C)c(C(=O)N2CC[C@H](Oc3ncnc4c3nc(-c3cnn(CC)c3C)n4C)C2)o1 [Compound 2-86, 6-({(3S)-1-[(2-ethyl-4-methyl-1,3-oxazol-5-yl)carbonyl]pyrrolidin-3-yl}oxy)-8-(1-ethyl-5-methyl-1H-pyrazol-4-yl)-9-methyl-9H-purine] | >10
CCn1ncc(-c2nc3c(O[C@H]4CCN(C(=O)c5cnoc5C(C)C)C4)ncnc3n2C)c1C [Compound 2-87, 8-(1-ethyl-5-methyl-1H-pyrazol-4-yl)-9-methyl-6-{[(3S)-1-{[5-(1-methylethyl)isoxazol-4-yl]carbonyl}pyrrolidin-3-yl]oxy}-9H-purine] | >10
CCn1ncc(-c2nc3c(O[C@H]4CCN(C(=O)c5cocn5)C4)ncnc3n2C)c1C [Compound 2-88, 8-(1-ethyl-5-methyl-1H-pyrazol-4-yl)-9-methyl-6-{[(3S)-1-(1,3-oxazol-4-ylcarbonyl)pyrrolidin-3-yl]oxy}-9H-purine] | >10
CCC(=O)N1CC[C@H](Oc2ncnc3c2nc(-c2cnc(OC)c(C)c2)n3CC)C1 [Compound 2-89, (S)-1-(3-((9-ethyl-8-(6-methoxy-5-methylpyridin-3-yl)-9H-purin-6-yl)oxy)pyrrolidin-1-yl)propan-1-one] | >10
CCn1ncc(-c2nc3c(O[C@H]4CCN(C(C)=O)C4)ncnc3n2C)c1C [Compound 2-90, (S)-1-(3-((8-(1-ethyl-5-methyl-1H-pyrazol-4-yl)-9-methyl-9H-purin-6-yl)oxy)pyrrolidin-1-yl)ethanone] | >10
CCn1ncc(-c2nc3c(O[C@H]4CCN(C(=O)C(C)C)C4)ncnc3n2C)c1C [Compound 2-91, (S)-1-(3-((8-(1-ethyl-5-methyl-1H-pyrazol-4-yl)-9-methyl-9H-purin-6-yl)oxy)pyrrolidin-1-yl)-2-methylpropan-1-one] | >10
CCn1ncc(-c2nc3c(O[C@H]4CCN(C(=O)C(C)(C)C)C4)ncnc3n2C)c1C [Compound 2-92, (S)-1-(3-((8-(1-ethyl-5-methyl-1H-pyrazol-4-yl)-9-methyl-9H-purin-6-yl)oxy)pyrrolidin-1-yl)-2,2-dimethylpropan-1-one] | >10
CCC(=O)N1CC[C@H](Oc2ncnc3c2nc(-c2cnn(CC)c2C)n3CC)C1 [Compound 2-93, (S)-1-(3-((9-ethyl-8-(1-ethyl-5-methyl-1H-pyrazol-4-yl)-9H-purin-6-yl)oxy)pyrrolidin-1-yl)propan-1-one] | >10
CCC(=O)N1CC[C@H](Oc2ncnc3c2nc(-c2cnc(OC)c(C)c2)n3C)C1 [Compound 2-94, (S)-1-(3-((8-(6-methoxy-5-methylpyridin-3-yl)-9-methyl-9H-purin-6-yl)oxy)pyrrolidin-1-yl)propan-1-one] | >10
CCC(=O)N1CC[C@H](Oc2ncnc3c2nc(-c2cnc(C(C)(C)C)s2)n3CC)C1 [Compound 2-95, (S)-1-(3-((8-(2-(tert-butyl)thiazol-5-yl)-9-ethyl-9H-purin-6-yl)oxy)pyrrolidin-1-yl)propan-1-one] | >10

— patent US9730940B2, “Purine inhibitors of human phosphatidylinositol 3-kinase delta” (priority 2012, dated 2017)
